From patent US7709636B2, “Pyrazole sulfonylurea compound and herbicide” (Nissan Chemical Industries, Ltd., priority 2004, dated 2010)

Key:
Echinochloa crus-galli [1] = experiment: Herbicidal effect test in submerged condition by treatment before weed-generation (1); type: in vivo; conditions: 0.64 g/a, water surface treated on day of sowing, 3 weeks after treatment
Description: (§1) Herbicidal Effect Test in Submerged Condition by Treatment Before Weed-Generation (1)
(§2) After alluvial soil was placed in a styrol cup of 1/30000 are, water was poured therein and mixed, and adjusted to a submerged condition of water depth 4 cm. After seeds of Echinochloa crus-galli, Scirpus juncoides and Monochoria vaginalis were sown in the cup, rice seedlings at 2.5th leaf stage were transplanted. On the day when the seeds were sown, the wettable powder of the present invention prepared according to Formulation Example 1 was diluted with water so as to give a predetermined formulation amount, and the surface of the water was treated with the diluted wettable powder. The plants were grown by putting the cup in a green house at 25 to 30° C., and investigated on herbicidal effect against each weed 3 weeks after treatment with the herbicide according to the following criteria.
(§3) 5 Herbicidal rate 90% or more (almost complete death)
(§4) 4 Herbicidal rate 70% or more and less than 90%
(§5) 3 Herbicidal rate 40% or more and less than 70%
(§6) 2 Herbicidal rate 20% or more and less than 40%
(§7) 1 Herbicidal rate 5% or more and less than 20%
(§8) 0 Herbicidal rate 5% or less (little effect)

Monochoria vaginalis [2] = experiment: as above; type: in vivo; conditions: 0.64 g/a, water surface treated on day of sowing, 3 weeks after treatment
Description: as §1, §2, §3, §4, §5, §6, §7, §8

Scirpus juncoides [3] = experiment: as above; type: in vivo; conditions: 0.64 g/a, water surface treated on day of sowing, 3 weeks after treatment
Description: as §1, §2, §3, §4, §5, §6, §7, §8

Echinochloa crus-galli [4] = experiment: Herbicidal effect test in submerged condition by treatment during weed-growth stage (1); type: in vivo; conditions: 0.64 g/a, treated at 1st to 2nd leaf stage, 3 weeks after treatment
Protocol: (§9) Herbicidal Effect Test in Submerged Condition by Treatment During Weed-Growth Stage (1) After alluvial soil was placed in a styrol cup of 1/30000 are, water was poured therein and mixed, and adjusted to a submerged condition of water depth 4 cm. After seeds of Echinochloa crus-galli, Scirpus juncoides and Monochoria vaginalis were sown in the cup, the plants were grown by putting the cup in a green house at 25 to 30° C. When Echinochloa crus-galli, Scirpus juncoides and Monochoria vaginalis reached 1st to 2nd leaf stage, the wettable powder of the present invention prepared according to Formulation Example 1 was diluted with water so as to give a predetermined formulation amount, and the surface of the water was treated with the diluted wettable powder. The herbicidal effect for each plant was investigated 3 weeks after treatment with the herbicide according to the criteria indicated in Test Example 1.

Monochoria vaginalis [5] = experiment: as above; type: in vivo; conditions: 0.64 g/a, treated at 1st to 2nd leaf stage, 3 weeks after treatment
Protocol: as §9

Scirpus juncoides [6] = experiment: as above; type: in vivo; conditions: 0.64 g/a, treated at 1st to 2nd leaf stage, 3 weeks after treatment
Protocol: as §9

Abutilon avicennae [7] = experiment: Herbicidal effect test by soil treatment; type: in vivo; conditions: 1.6 g/a, 3 weeks after treatment
Description: (§10) Herbicidal Effect Test by Soil Treatment
(§11) Sterilized diluvial soil was placed in a plastic box having a size of length 21 cm, width 13 cm and depth 7 cm, seeds Echinochloa crus-galli, Digitaria adscendes, Setaria viridis, Avena fatua, Black-grass, Abutilon avicennae, Ambrosia elatior, Amaranthus retroflexus, Chenopodium album, Polygonum blumei, Stellaria media, Zea mays (corn), Glycine max (soybean), Oryza sativa (rice), Triticum aestivum (wheat) and Beta vulgaris (beat) were sown interspatially, covered with about 1.5 cm of soil, and then the wettable powder of the present invention prepared according to Formulation Example 1 was diluted with water so as to give a predetermined formulation amount, and the surface of the soil was uniformly treated with the diluted wettable powder by use of a small-sized spray. The herbicidal effect for each plant was investigated 3 weeks after treatment with the herbicide according to the criteria indicated in Test Example 1.

Amaranthus retroflexus [8] = experiment: Herbicidal effect test by soil treatment; type: in vivo; conditions: 1.6 g/a, 3 weeks after treatment
Description: as §10, §11

Ambrosia elatior [9] = experiment: Herbicidal effect test by soil treatment; type: in vivo; conditions: 1.6 g/a, 3 weeks after treatment
Description: as §10, §11

Beta vulgaris (beet) [10] = experiment: Herbicidal effect test by soil treatment; type: in vivo; conditions: 1.6 g/a, 3 weeks after treatment
Description: as §10, §11

Chenopodium album [11] = experiment: Herbicidal effect test by soil treatment; type: in vivo; conditions: 1.6 g/a, 3 weeks after treatment
Description: as §10, §11

Digitaria adscendes [12] = experiment: Herbicidal effect test by soil treatment; type: in vivo; conditions: 1.6 g/a, 3 weeks after treatment
Description: as §10, §11

Echinochloa crus-galli [13] = experiment: Herbicidal effect test by soil treatment; type: in vivo; conditions: 1.6 g/a, 3 weeks after treatment
Description: as §10, §11

Polygonum blumei [14] = experiment: Herbicidal effect test by soil treatment; type: in vivo; conditions: 1.6 g/a, 3 weeks after treatment
Description: as §10, §11

Setaria viridis [15] = experiment: Herbicidal effect test by soil treatment; type: in vivo; conditions: 1.6 g/a, 3 weeks after treatment
Description: as §10, §11

Stellaria media [16] = experiment: Herbicidal effect test by soil treatment; type: in vivo; conditions: 1.6 g/a, 3 weeks after treatment
Description: as §10, §11

corn (Zea mays) [17] = experiment: Herbicidal effect test by soil treatment; type: in vivo; conditions: 1.6 g/a, 3 weeks after treatment
Description: as §10, §11

soybean (Glycine max) [18] = experiment: Herbicidal effect test by soil treatment; type: in vivo; conditions: 1.6 g/a, 3 weeks after treatment
Description: as §10, §11

direct sown rice [19] = experiment: Herbicidal effect test by soil treatment; type: in vivo, Oryza sativa; conditions: 1.6 g/a, 3 weeks after treatment
Description: as §10, §11

Abutilon avicennae [20] = experiment: Herbicidal effect test by foliage treatment; type: in vivo; conditions: 1.6 g/a; foliage treatment after growth of 14 days; 3 weeks after treatment
Description: (§12) Herbicidal Effect Test by Foliage Treatment
(§13) Sterilized diluvial soil was placed in a plastic box having a size of length 21 cm, width 13 cm and depth 7 cm, seeds of Echinochloa crus-galli, Digitaria adscendes, Setaria viridis, Avena fatua, Black-grass, Abutilon avicennae, Ambrosia elatior, Amaranthus retroflexus, Chenopodium album, Polygonum blumei, Stellaria media, Zea mays, Glycine max, Oryza sativa, Triticum aestivum and Beta vulgaris were sown interspatially, covered with about 1.5 cm of soil, and then the plants were grown by putting the box in a green house at 25 to 30° C. After growth of 14 days, the wettable powder of the present invention prepared according to Formulation Example 1 was diluted with water so as to give a predetermined formulation amount, and the foliage part was uniformly treated with the diluted wettable powder by use of a small-sized spray. The herbicidal effect for each plant was investigated 3 weeks after treatment with the herbicide according to the criteria indicated in Test Example 1.

Amaranthus retroflexus [21] = experiment: Herbicidal effect test by foliage treatment; type: in vivo; conditions: 1.6 g/a; foliage treatment after growth of 14 days; 3 weeks after treatment
Description: as §12, §13

Ambrosia elatior [22] = experiment: Herbicidal effect test by foliage treatment; type: in vivo; conditions: 1.6 g/a; foliage treatment after growth of 14 days; 3 weeks after treatment
Description: as §12, §13

Avena fatua = experiment: Herbicidal effect test by foliage treatment; type: in vivo; conditions: 1.6 g/a; foliage treatment after growth of 14 days; 3 weeks after treatment
Description: as §12, §13

Beta vulgaris (beet) [23] = experiment: Herbicidal effect test by foliage treatment; type: in vivo; conditions: 1.6 g/a; foliage treatment after growth of 14 days; 3 weeks after treatment
Description: as §12, §13

Black-grass = experiment: Herbicidal effect test by foliage treatment; type: in vivo; conditions: 1.6 g/a; foliage treatment after growth of 14 days; 3 weeks after treatment
Description: as §12, §13

Chenopodium album [24] = experiment: Herbicidal effect test by foliage treatment; type: in vivo; conditions: 1.6 g/a; foliage treatment after growth of 14 days; 3 weeks after treatment
Description: as §12, §13

Digitaria adscendes [25] = experiment: Herbicidal effect test by foliage treatment; type: in vivo; conditions: 1.6 g/a; foliage treatment after growth of 14 days; 3 weeks after treatment
Description: as §12, §13

Echinochloa crus-galli [26] = experiment: Herbicidal effect test by foliage treatment; type: in vivo; conditions: 1.6 g/a; foliage treatment after growth of 14 days; 3 weeks after treatment
Description: as §12, §13

Polygonum blumei [27] = experiment: Herbicidal effect test by foliage treatment; type: in vivo; conditions: 1.6 g/a; foliage treatment after growth of 14 days; 3 weeks after treatment
Description: as §12, §13

Setaria viridis [28] = experiment: Herbicidal effect test by foliage treatment; type: in vivo; conditions: 1.6 g/a; foliage treatment after growth of 14 days; 3 weeks after treatment
Description: as §12, §13

Stellaria media [29] = experiment: Herbicidal effect test by foliage treatment; type: in vivo; conditions: 1.6 g/a; foliage treatment after growth of 14 days; 3 weeks after treatment
Description: as §12, §13

[30] = test system: Triticum aestivum (wheat); experiment: Herbicidal effect test by foliage treatment; type: in vivo; conditions: 1.6 g/a; foliage treatment after growth of 14 days; 3 weeks after treatment
Description: as §12, §13

corn (Zea mays) [31] = experiment: Herbicidal effect test by foliage treatment; type: in vivo; conditions: 1.6 g/a; foliage treatment after growth of 14 days; 3 weeks after treatment
Description: as §12, §13

soybean (Glycine max) [32] = experiment: Herbicidal effect test by foliage treatment; type: in vivo; conditions: 1.6 g/a; foliage treatment after growth of 14 days; 3 weeks after treatment
Description: as §12, §13

direct sown rice [33] = experiment: Herbicidal effect test by foliage treatment; type: in vivo, Oryza sativa; conditions: 1.6 g/a; foliage treatment after growth of 14 days; 3 weeks after treatment
Description: as §12, §13

Compound: COc1cc(OC)nc(NC(=O)NS(=O)(=O)c2c(C3=NOCC(CI)O3)c(Cl)nn2C)n1 (centres unmarked) [Compound 2, N-((4,6-dimethoxypyrimidin-2-yl)aminocarbonyl)-3-chloro-4-(5-iodomethyl-5H,6H-1,4,2-dioxadin-3-yl)-1-methylpyrazole-5-sulfonamide]
- herbicidal effect, A: Echinochloa crus-galli (Echinochloa crus-galli [1]): 4 (Herbicidal rate 70% or more and less than 90%)
- herbicidal effect, C: Monochoria vaginalis (Monochoria vaginalis [2]): 5 (Herbicidal rate 90% or more (almost complete death))
- herbicidal effect, B: Scirpus juncoides (Scirpus juncoides [3]): 5 (Herbicidal rate 90% or more (almost complete death))
- herbicidal effect, A: Echinochloa crus-galli (Echinochloa crus-galli [4]): 2 (Herbicidal rate 20% or more and less than 40%)
- herbicidal effect, C: Monochoria vaginalis (Monochoria vaginalis [5]): 4 (Herbicidal rate 70% or more and less than 90%)
- herbicidal effect, B: Scirpus juncoides (Scirpus juncoides [6]): 4 (Herbicidal rate 70% or more and less than 90%)
- herbicidal effect, H: Abutilon avicennae (Abutilon avicennae [7]): 0 (Herbicidal rate 5% or less (little effect))
- herbicidal effect, J: Amaranthus retroflexus (Amaranthus retroflexus [8]): 1 (Herbicidal rate 5% or more and less than 20%)
- herbicidal effect, I: Ambrosia elatior (Ambrosia elatior [9]): 3 (Herbicidal rate 40% or more and less than 70%)
- herbicidal effect, f: Beta vulgaris (beet) (Beta vulgaris (beet) [10]): 2 (Herbicidal rate 20% or more and less than 40%)
- herbicidal effect, K: Chenopodium album (Chenopodium album [11]): 4 (Herbicidal rate 70% or more and less than 90%)
- herbicidal effect, D: Digitaria adscendes (Digitaria adscendes [12]): 0 (Herbicidal rate 5% or less (little effect))
- herbicidal effect, A: Echinochloa crus-galli (Echinochloa crus-galli [13]): 0 (Herbicidal rate 5% or less (little effect))
- herbicidal effect, L: Polygonum blumei (Polygonum blumei [14]): 0 (Herbicidal rate 5% or less (little effect))
- herbicidal effect, E: Setaria viridis (Setaria viridis [15]): 0 (Herbicidal rate 5% or less (little effect))
- herbicidal effect, M: Stellaria media (Stellaria media [16]): 3 (Herbicidal rate 40% or more and less than 70%)
- herbicidal effect, b: corn (Zea mays) (corn (Zea mays) [17]): 0 (Herbicidal rate 5% or less (little effect))
- herbicidal effect, c: soybean (Glycine max) (soybean (Glycine max) [18]): 0 (Herbicidal rate 5% or less (little effect))
- herbicidal effect, d: direct sown rice (direct sown rice [19]): 0 (Herbicidal rate 5% or less (little effect))
- herbicidal effect, H: Abutilon avicennae (Abutilon avicennae [20]): 5 (Herbicidal rate 90% or more (almost complete death))
- herbicidal effect, J: Amaranthus retroflexus (Amaranthus retroflexus [21]): 0 (Herbicidal rate 5% or less (little effect))
- herbicidal effect, I: Ambrosia elatior (Ambrosia elatior [22]): 4 (Herbicidal rate 70% or more and less than 90%)
- herbicidal effect, F: Avena fatua (Avena fatua): 0 (Herbicidal rate 5% or less (little effect))
- herbicidal effect, f: Beta vulgaris (beet) (Beta vulgaris (beet) [23]): 4 (Herbicidal rate 70% or more and less than 90%)
- herbicidal effect, G: Black-grass (Black-grass): 1 (Herbicidal rate 5% or more and less than 20%)
- herbicidal effect, K: Chenopodium album (Chenopodium album [24]): 4 (Herbicidal rate 70% or more and less than 90%)
- herbicidal effect, D: Digitaria adscendes (Digitaria adscendes [25]): 1 (Herbicidal rate 5% or more and less than 20%)
- herbicidal effect, A: Echinochloa crus-galli (Echinochloa crus-galli [26]): 3 (Herbicidal rate 40% or more and less than 70%)
- herbicidal effect, L: Polygonum blumei (Polygonum blumei [27]): 0 (Herbicidal rate 5% or less (little effect))
- herbicidal effect, E: Setaria viridis (Setaria viridis [28]): 1 (Herbicidal rate 5% or more and less than 20%)
- herbicidal effect, M: Stellaria media (Stellaria media [29]): 5 (Herbicidal rate 90% or more (almost complete death))
- herbicidal effect, e: Triticum aestivum (wheat) [30]: 0 (Herbicidal rate 5% or less (little effect))
- herbicidal effect, b: corn (Zea mays) (corn (Zea mays) [31]): 4 (Herbicidal rate 70% or more and less than 90%)
- herbicidal effect, c: soybean (Glycine max) (soybean (Glycine max) [32]): 4 (Herbicidal rate 70% or more and less than 90%)
- herbicidal effect, d: direct sown rice (direct sown rice [33]): 0 (Herbicidal rate 5% or less (little effect))
